According to US9018391B2, “Inhibitors of beta-secretase” (Boehringer Ingelheim International GmbH, priority 2012, dated 2015):

How the values were obtained:
hERG channel = hERG channel (Homo sapiens (Human), UniProt Q12809); assay: hERG-Channel Assay (Assay 2), whole-cell patch clamp in HEK293 cells stably transfected with hERG cDNA; type: cell-based; details: human, HEK293 cells stably transfected with hERG cDNA, pH 7.4, 35° C.
Description: hERG-Channel Assay (Assay 2)
Cells: HEK (human embryonic kidney) 293 cells were stably transfected with hERG cDNA.
Cells were superfused with a bath solution containing (mM): NaCl (137), KCl (4.0), MgCl2 (1.0), CaCl2 (1.8), Glucose (10), HEPES (10), pH 7.4 with NaOH. Patch pipettes were made from borosilicate glass tubing using a horizontal puller and filled with pipette solution containing (mM): K-aspartate (130), MgCl2 (5.0), EGTA (5.0), K2ATP (4.0), HEPES (10.0), pH 7.2 with KOH. Resistance of the microelectrodes was in the range between 2 and 5 MΩ.
Stimulation and Recording:
Membrane currents were recorded using an EPC-10 patch clamp amplifier and PatchMaster software. hERG-mediated membrane currents were recorded at 35° C., using the whole-cell configuration of the patch-clamp technique. Transfected HEK293 cells were clamped at a holding potential of −60 mV and hERG-mediated inactivating tail currents were elicited using a pulse pattern with fixed amplitudes (activation/inactivation: 40 mV for 2000 ms; recovery: −120 mV for 2 ms; ramp to 40 mV in 2 ms; inactivating tail current: 40 mV for 50 ms) repeated at 15 s intervals. During each inter-pulse interval, 4 pulses scaled down by a factor of 0.2 were recorded for a P/n leak subtraction procedure. Rs compensation was employed up to a level that safely allowed recording devoid of ringing.
Compound Preparation and Application:
The different concentrations of the test compounds were applied sequentially on each of the different cells investigated. A steady state level of baseline current was measured for at least 6 sweeps prior to the application of the first test compound concentration.
The test compound was dissolved in DMSO to yield a master stock solution which was diluted further in DMSO to stock solutions needed for the lower concentrations. Final dilutions in extracellular buffer were prepared freshly from these stocks by a 1:1000 dilution step each before starting the experiments.
Peak current amplitudes were measured 3 ms after the ramp to +40 mV. For baseline and each concentration, the peak currents of the three last sweeps before application of the next concentration were averaged. Residual currents (I/I0) were calculated for each cell as the fraction of actual average peak current and average baseline peak current.

[1] = In Vitro Phospholipidosis Assay (Assay 3), Nile red staining; type: cell-based, human; details: human, first effect concentration, U937 cells, read-out: Phospholipidosis FEC IC50 μM (assay 3)
Experimental: In Vitro Phospholipidosis Assay (Assay 3)
The phospholipidogenic potential of test compounds was assayed using the human hematopoetic U937 cell line. The test principle was to analyze the phospholipid content by staining the cells with the fluorescent dye Nile red.
U937 cells were seeded into cell culture plates at 0.5×10^6 cells/mL in RPMI medium containing 10% FBS, 1% DMSO, and 0.005% gentamicin. The cells were cultivated with or without different concentrations of test compound for 48 h under standard culture conditions.
For harvesting, the cells were centrifuged at 130×g for 4 min and washed once with PBS. Then, 2×0.5 mL cell suspensions were prepared for non-fixed cell measurement (0.5 mL for propidium iodide (PI) viability measurement and 0.5 mL for Nile red measurement).
The remaining cells were fixed with 3.7% formaldehyde for 30 min. After a further centrifugation step, cells were resuspended with 1.3 mL Nile red working solution (1 μg/mL) and incubated for 5 min at rt. The cell suspension was washed twice with 3 mL PBS and centrifuged with 130×g for 4 min. The supernatant was discarded and the cells were resuspended with 0.5 mL PBS and kept for flow cytometry measurement.
For Nile red staining of the 0.5 mL non-fixed cell samples, 50 μL of a ready to use Nile red solution (10 μg/mL) were added per sample. Samples were kept on ice for 5 min. Thereafter, they were washed once with 4 mL PBS (4° C., 250×g for 8 min) and finally resuspended in 400 μL PBS and kept for flow cytometry measurement.
For the viability measurement, 12.5 μL of the ready to use PI solution (10 μg/mL) were added to the 0.5 mL non-fixed cell suspension. After 15 min of incubation on ice, the samples were measured by flow cytometry using a Coulter Epics XL/MCL flow cytometer.
The viability of the cells of each sample was determined by flow cytometry measurement of the PI content at channel 2 (568-590 nm). Cut-off gates for the fluorescence-dependent differentiation between live and dead cells were defined based on the analysis of cell culture medium control samples.
Only samples with a cell viability of >=90% relative to control samples were analyzed for phospholipidosis. Each Nile red sample (non-fixed and fixed samples) was measured by flow cytometry at channel 1 (504-541 nm) and channel 4 (660-680 nm).
For each channel, relative Nile red fluorescence intensity of a test sample was calculated compared to control samples and expressed as a percentage of control fluorescence intensity. The assessment of the phospholipidogenic potential and the first effective concentration (FEC) of a test compound was done manually based on the fluorescence intensities at both wavelengths for the fixed cells, as well as for the non-fixed cells.

Chain of hERG channel (Q12809 whole entry): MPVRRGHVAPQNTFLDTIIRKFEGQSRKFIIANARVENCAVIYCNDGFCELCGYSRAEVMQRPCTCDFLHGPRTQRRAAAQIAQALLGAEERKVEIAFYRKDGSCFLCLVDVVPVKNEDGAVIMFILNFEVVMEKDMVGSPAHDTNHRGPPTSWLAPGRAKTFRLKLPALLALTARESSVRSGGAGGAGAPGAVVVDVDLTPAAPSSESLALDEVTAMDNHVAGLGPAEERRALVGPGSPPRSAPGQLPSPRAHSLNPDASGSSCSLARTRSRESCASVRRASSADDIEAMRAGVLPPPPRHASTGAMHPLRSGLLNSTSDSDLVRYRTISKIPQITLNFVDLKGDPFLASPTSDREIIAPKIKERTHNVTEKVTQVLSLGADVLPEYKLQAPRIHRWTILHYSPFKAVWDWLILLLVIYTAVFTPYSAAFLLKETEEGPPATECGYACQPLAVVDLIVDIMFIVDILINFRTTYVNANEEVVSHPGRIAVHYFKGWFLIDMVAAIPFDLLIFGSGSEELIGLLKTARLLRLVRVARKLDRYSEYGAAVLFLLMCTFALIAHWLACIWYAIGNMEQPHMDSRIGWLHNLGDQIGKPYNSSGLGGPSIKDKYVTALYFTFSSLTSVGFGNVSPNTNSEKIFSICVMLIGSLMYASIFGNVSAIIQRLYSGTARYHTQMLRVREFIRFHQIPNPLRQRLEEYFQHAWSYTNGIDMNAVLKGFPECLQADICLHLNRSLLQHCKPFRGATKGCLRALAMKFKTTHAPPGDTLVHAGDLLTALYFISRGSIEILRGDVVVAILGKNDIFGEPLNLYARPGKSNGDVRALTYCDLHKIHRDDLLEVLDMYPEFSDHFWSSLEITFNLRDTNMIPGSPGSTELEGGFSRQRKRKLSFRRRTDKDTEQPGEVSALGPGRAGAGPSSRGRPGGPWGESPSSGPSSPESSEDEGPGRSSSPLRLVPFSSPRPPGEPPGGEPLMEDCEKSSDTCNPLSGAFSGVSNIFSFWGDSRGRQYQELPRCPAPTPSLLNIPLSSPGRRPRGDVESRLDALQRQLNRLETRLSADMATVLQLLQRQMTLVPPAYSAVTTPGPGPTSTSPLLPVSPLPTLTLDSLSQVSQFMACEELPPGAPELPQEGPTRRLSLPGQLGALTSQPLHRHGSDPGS

SMILES: CC[C@@H]1C[C@]2(CC[C@H]1O)Cc1ccc(C#N)cc1[C@]21N=C(N)N(CC(C)(C)F)C1=O [Example 9]
- inhibition at 10 µM (hERG channel): 2.5%
- IC50 at 48 h [1]: 400 µM

SMILES: CC[C@@H]1C[C@@]2(Cc3ccc(C#N)cc3[C@]23N=C(N)N(CC(C)(C)F)C3=O)C[C@H](C)[C@H]1O [Example 7]
- inhibition at 10 µM (hERG channel): 15%
- IC50 at 48 h [1]: 400 µM

SMILES: C[C@@H]1C[C@@]2(Cc3ccc(C#N)cc3[C@]23N=C(N)N(CC2(F)CCOCC2)C3=O)C[C@H](C)[C@H]1O [Example 4]
- inhibition at 10 µM (hERG channel): 13%
- IC50 at 48 h [1]: 800 µM

SMILES: C[C@@H]1C[C@@]2(Cc3ccc(C#N)cc3[C@]23N=C(N)N(CCC(F)(F)F)C3=O)C[C@H](C)[C@H]1O [Example 1]
- inhibition at 10 µM (hERG channel): 13%
- IC50 at 48 h [1]: 400 µM

SMILES: C[C@@H]1C[C@@]2(Cc3ccc(C#N)cc3[C@]23N=C(N)N(CC(C)(C)F)C3=O)C[C@H](C)[C@H]1O [Example 2]
- inhibition at 10 µM (hERG channel): 4.5%
- IC50 at 48 h [1]: 400 µM
